Data reported in patent US20040176317A1, “Functionalised maltosyl fluoride as glycosyl donor in the chemo-enzymatic preparation of ratio of oligo-or polysaccharides” (priority 2001, published 2004).

Assay: Storage stability of the lyophilized fluoride
Type: physicochemical
Conditions: for stability of the fluoride: at −18° C. in the lyophilized form
Experimental: This fluoride is stable at −18° C. in the lyophilized form.

| Structure (SMILES) | first decomposition compound | stability of the fluoride |
| --- | --- | --- |
| OCC1O[C@H](O[C@@H]2C(CO)O[C@H](F)C(O)C2O)C(O)C(O)[C@@H]1OC1CCCCO1 (stereo partly drawn) [Example 1e, 4-0-tetrahydropyranyl-α-D-glucopyran-osyl-(1→4)-α-D-glucopyranosyl fluoride] | α-maltosyl fluoride | stable |
| OC[C@H]1O[C@H](F)[C@H](O)[C@@H](O)[C@@H]1O[C@H]1O[C@H](CBr)[C@@H](OC2CCCCO2)[C@H](O)[C@H]1O (stereo partly drawn) [Example 4d, 6-bromo-6-deoxy-4-O-tetrahydro-pyranyl-α-D-glucopyranosyl-(1→4)-α-D-glucopyranosyl fluoride] | – | stable |
